From patent publication US7118872B2, “Binding polypeptides for B lymphocyte stimulator protein (BLyS)” (priority 2000, dated 2006)
Positions of bridges follow the written chain, without caps; N, C: chain ends. Residues, ends and D or L forms follow the SMILES beside them. No end group written: not given here.

target: BLyS (Homo sapiens, UniProt Q9Y275); experiment: Chromatographic screening of immobilized BLyS binding polypeptides (affinity media); settings: peptide immobilized on SEPHAROSE 4 Fast Flow
Experimental: A reversed phase analytical assay was used in the assessment of the chromatographic performance of the six affinity media.
All columns were tested at 200 μl/min (170 cm/hr) using a Watson/Marlow 101 ru peristaltic pump. This setup allowed free use of numerous wash, protein and elution conditions. Detection was made using a Waters 2487 UV/VIS detector at 214 nm and 280 nm connected to a Waters Millennium workstation.
The columns were then tested with an array of possible elution conditions and monitored at 214 nm and 280 nm for release of BLyS. Fractions indicating possible BLyS elution based on UV absorbance were collected and analyzed by reversed phase chromatography for confirmation.

BLyS, sequence (Q9Y275 134-285 limits assumed): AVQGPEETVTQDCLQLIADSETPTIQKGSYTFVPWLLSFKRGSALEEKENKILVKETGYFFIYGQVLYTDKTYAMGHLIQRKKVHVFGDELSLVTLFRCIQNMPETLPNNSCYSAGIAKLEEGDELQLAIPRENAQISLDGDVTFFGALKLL

Question: `CC(=O)N[C@@H](C)C(=O)NCC(=O)N[C@@H](CCCCN)C(=O)N[C@@H](CCC(=O)O)C(=O)N1CCC[C@H]1C(=O)N[C@H]1CSSC[C@@H](C(=O)N[C@@H](C)C(=O)N[C@H](C(=O)N[C@@H](CO)C(=O)NCC(=O)N2CCC[C@H]2C(=O)NCC(=O)N2CCC[C@H]2C(=O)N[C@@H](CCC(=O)O)C(=O)NCC(=O)NCC(=O)NCC(=O)N[C@@H](CCCCN)C(=O)O)C(C)C)NC(=O)[C@H](CCC(=O)O)NC(=O)[C@H](Cc2c[nH]c3ccccc23)NC(=O)[C@H](Cc2ccc(O)cc2)NC(=O)[C@H](Cc2ccccc2)NC(=O)[C@H](Cc2ccc(O)cc2)NC1=O` [DX212] (Ac-AGKEPCYFYWECAVSGPGPEGGGK-OH; disulfide 6-12; C-terminus assumed) was tested. Which “release of BLyS from affinity media (elution condition)” value (“release of BLyS from affinity media” below) did it give?
Answer: released BLyS with good recoveries on elution with 50% ethylene glycol, pH 4

Question: Which “release of BLyS from affinity media” value does the source give for `CC(=O)N[C@@H](C)C(=O)NCC(=O)N[C@H](C(=O)N1CCC[C@H]1C(=O)N[C@@H](Cc1ccccc1)C(=O)N[C@H]1CSSC[C@@H](C(=O)N[C@@H](Cc2ccccc2)C(=O)N[C@@H](CCC(=O)O)C(=O)N[C@@H](C)C(=O)NCC(=O)N2CCC[C@H]2C(=O)NCC(=O)N2CCC[C@H]2C(=O)N[C@@H](CCC(=O)O)C(=O)NCC(=O)NCC(=O)NCC(=O)N[C@@H](CCCCN)C(=O)O)NC(=O)[C@H](Cc2c[nH]cn2)NC(=O)[C@H](CCCCN)NC(=O)[C@H]([C@@H](C)O)NC(=O)[C@H](CC(C)C)NC(=O)[C@H](CC(C)C)NC(=O)[C@H](CC(=O)O)NC1=O)C(C)C` [DX214] (Ac-AGVPFCDLLTKHCFEAGPGPEGGGK-OH; disulfide 6-13; C-terminus assumed) here?
Answer: would only release BLyS in the presence of pH 2 buffer

Question: Which “release of BLyS from affinity media” value does the source give for `CSCC[C@@H]1NC(=O)[C@H](Cc2c[nH]cn2)NC(=O)[C@@H](NC(=O)[C@H](CC(C)C)NC(=O)[C@H](CCCNC(=N)N)NC(=O)[C@H](CO)NC(=O)[C@H](CO)NC(=O)CNC(C)=O)CSSC[C@@H](C(=O)N[C@H](C(=O)N[C@@H](Cc2c[nH]cn2)C(=O)N[C@@H](Cc2ccccc2)C(=O)N[C@@H](C)C(=O)N2CCC[C@H]2C(=O)N2CCC[C@H]2C(=O)NCC(=O)N2CCC[C@H]2C(=O)N[C@@H](CCC(=O)O)C(=O)NCC(=O)NCC(=O)NCC(=O)N[C@@H](CCCCN)C(=O)O)C(C)C)NC(=O)[C@H](C(C)C)NC(=O)[C@H](Cc2c[nH]cn2)NC(=O)[C@H]([C@@H](C)O)NC(=O)[C@H](CC(C)C)NC(=O)[C@H](CCC(=O)O)NC(=O)[C@H](CC(=O)O)NC1=O` [DX216] (Ac-GSSRLCHMDELTHVCVHFAPPGPEGGGK-OH; disulfide 6-15; C-terminus assumed) here?
Answer: would only release BLyS in the presence of pH 2 buffer

Question: With `CSCC[C@H](NC(=O)[C@@H]1CSSC[C@H](NC(=O)[C@H](CC(N)=O)NC(=O)CNC(=O)CNC(=O)[C@H](CC(=O)O)NC(=O)CNC(C)=O)C(=O)N[C@@H](Cc2ccc(O)cc2)C(=O)N[C@@H]([C@@H](C)O)C(=O)N[C@@H](CC(=O)O)C(=O)N[C@@H](CO)C(=O)N[C@@H](CC(C)C)C(=O)N[C@@H]([C@@H](C)O)C(=O)N[C@@H](CCCCN)C(=O)N[C@@H](CC(C)C)C(=O)N[C@@H](Cc2c[nH]cn2)C(=O)N[C@@H](Cc2ccccc2)C(=O)N1)C(=O)NCC(=O)N[C@@H](CC(=O)O)C(=O)N[C@@H](CCC(=O)O)C(=O)N1CCC[C@H]1C(=O)NCC(=O)N1CCC[C@H]1C(=O)N[C@@H](CCC(=O)O)C(=O)NCC(=O)NCC(=O)NCC(=O)N[C@@H](CCCCN)C(=O)O` [DX217] (Ac-GDGGNCYTDSLTKLHFCMGDEPGPEGGGK-OH; disulfide 6-17; C-terminus assumed) as the compound, how does the “release of BLyS from affinity media” value read?
Answer: would only release BLyS in the presence of pH 2 buffer

Question: Ac-GYDVLTKLYFVPGGPGPEGGGK [DX219] was tested. Which “release of BLyS from affinity media” value did it give?
Answer: would only release BLyS in the presence of pH 2 buffer

Question: For Ac-WTDSLTGLWFPDGGPGPEGGGK [DX221], which “release of BLyS from affinity media” value is on record?
Answer: would only release BLyS in the presence of pH 2 buffer
